Measured values from article PMC8770593 (Nature Communications, 2022).
Substitutions are numbered along the chain they refer to. “And” between values parts separate entries of the source, which are not always exact repeats. Equal entries are not always repeated.

Assays:
α1BAR-α2C(YLLY) chimera = target: T1, α1BAR-α2C(YLLY) chimera (Homo sapiens, UniProt P35368, A122L/L314Y/V197L/W121Y); test: HTRF ligand-binding assay on whole transfected HEK293T/17 cells (QAPB saturation; competition with QAPB tracer)
T1 sequence (P35368 35-520 W121Y/A122L/V197L/L314Y): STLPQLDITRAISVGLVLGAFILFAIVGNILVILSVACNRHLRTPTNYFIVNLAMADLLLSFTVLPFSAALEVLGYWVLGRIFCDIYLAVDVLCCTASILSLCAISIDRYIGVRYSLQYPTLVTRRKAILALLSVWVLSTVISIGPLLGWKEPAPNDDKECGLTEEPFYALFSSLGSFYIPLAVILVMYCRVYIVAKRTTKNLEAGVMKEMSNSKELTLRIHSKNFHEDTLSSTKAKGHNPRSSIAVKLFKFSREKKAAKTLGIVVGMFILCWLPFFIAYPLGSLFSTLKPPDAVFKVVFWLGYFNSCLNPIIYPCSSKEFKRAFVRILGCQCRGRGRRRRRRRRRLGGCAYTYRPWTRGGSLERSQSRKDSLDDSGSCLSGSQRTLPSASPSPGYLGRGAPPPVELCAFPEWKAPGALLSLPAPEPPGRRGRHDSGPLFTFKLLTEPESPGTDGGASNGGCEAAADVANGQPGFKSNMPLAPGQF

[1] = target: T2, α1BAR-α2C(L^45.52) chimera (V197^45.52→L) (Homo sapiens, UniProt P35368, V197L); test: as above
T2 sequence (P35368 35-520 V197L): T1 sequence (P35368 35-520 W121Y/A122L/V197L/L314Y) with Y87W, L88A, Y280L

[2] = test system: α1BAR expressed in mammalian cells; settings: radioligand binding; ref Proudman, R. G. W., et al., Pharmacol. Res. Perspect. 8 (2020); cited from earlier work
α1BARXTAL = target: T3, α1BARXTAL (Homo sapiens, UniProt P35368, D191Y/DEL249-283/E194V/F334L/G183V/I116T/P349L/S150Y/S168C/S95C/T295M/V124M/V333L); test: CPM-based thermostability assay of ligand-bound receptor; settings: cyclazosin-bound α1BARXTAL
T3 construct: deletion of N-terminal residues M1–N34 and intracellular loop three (ICL3) residues K249–L283, and fusion of DARPin D12[43],[68],[69] to residue C350^7.55; MBP (N, cleaved yes); His6-tag (N, cleaved yes); DARPin D12, modified (ΔS1,D2); L3K, G4A, K5R, A13K; thioredoxin A (TrxA) (C, cleaved yes); His10-tag (C, cleaved yes); made in house; host or cells: E. coli BL21 (fhuA2 deletion)

[3] = target: rat cerebral cortex tissue containing all three α2AR subtypes; set-up: method as in Giardinà, D. et al., J. Med. Chem. 39, 4602-4607 (1996); settings: ref Giardinà, D. et al., J. Med. Chem. 39, 4602-4607 (1996); cited from earlier work
wild-type α1BAR = target: T4, wild-type α1BAR (Homo sapiens, UniProt P35368); test: HTRF ligand-binding assay on whole transfected HEK293T/17 cells (QAPB saturation; competition with QAPB tracer)
T4 sequence (P35368 35-520 limits assumed): T1 sequence (P35368 35-520 W121Y/A122L/V197L/L314Y) with Y87W, L88A, L163V, Y280L

[4] = set-up: method as in ref 49 (a number printed in a supplementary file, which may have a reference list of its own: not looked up in the article's list); settings: computationally estimated; cited from earlier work
[5] = target: α1BARXTAL-ΔD12 (stabilized α1BAR without DARPin D12) (Homo sapiens, UniProt P35368, D191Y/DEL249-283/E194V/F334L/G183V/I116T/P349L/S150Y/S168C/S95C/T295M/V124M/V333L); test: HTRF competition ligand-binding assay on whole transfected HEK293T/17 cells (QAPB tracer); settings: construct α1BARXTAL-∆D12, competition with Cyclazosin against QAPB tracer, one value per experiment date, read-out: Calculated pKi values (converted)
Sequence of α1BARXTAL-ΔD12 (stabilized α1BAR without DARPin D12) (P35368 with tags, fused parts or gaps with the stated changes): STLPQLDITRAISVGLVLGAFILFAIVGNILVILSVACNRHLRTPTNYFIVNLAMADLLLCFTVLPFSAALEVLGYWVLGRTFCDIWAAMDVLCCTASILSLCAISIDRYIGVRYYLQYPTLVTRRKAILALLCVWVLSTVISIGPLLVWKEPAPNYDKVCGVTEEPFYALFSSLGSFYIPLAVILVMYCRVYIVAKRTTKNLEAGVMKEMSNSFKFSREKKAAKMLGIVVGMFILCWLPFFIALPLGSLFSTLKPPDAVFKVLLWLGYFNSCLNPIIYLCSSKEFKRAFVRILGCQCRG

T3 sequence (P35368 with tags, fused parts or gaps with the stated changes): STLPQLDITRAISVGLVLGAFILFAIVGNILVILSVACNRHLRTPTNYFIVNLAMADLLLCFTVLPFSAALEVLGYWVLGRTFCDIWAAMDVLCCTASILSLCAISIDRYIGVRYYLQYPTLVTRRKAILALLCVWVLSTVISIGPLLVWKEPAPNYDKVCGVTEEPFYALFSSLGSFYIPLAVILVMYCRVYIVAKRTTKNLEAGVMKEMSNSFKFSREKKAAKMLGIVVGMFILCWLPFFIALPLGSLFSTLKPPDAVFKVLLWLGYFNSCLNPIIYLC

## COc1cc2nc(N3CCN(C(=O)c4ccco4)[C@H]4CCCC[C@H]43)nc(N)c2cc1OC (relative stereo) [cyclazosin, [4-(4-amino-6,7-dimethoxyquinazolin-2-yl)-cis-octahydroquinoxalin-1-yl] furan-2-ylmethanone]
α1BAR-α2C(YLLY) chimera; pKi (competition binding), competition with 50 nM QAPB tracer, whole cells, mean
  Ki: 3.72 nM
α1BAR-α2C(YLLY) chimera; α1BAR-α2C(YLLY) vs wild-type α1BAR
  weaker affinity compared to wild-type α1BAR: ~4 fold
[1]; V197^45.52→L vs wild-type α1BAR
  effect of the substitution on affinity: negligible
[1]; pKi (competition binding), competition with 2 nM QAPB tracer, whole cells, mean
  Ki: 1.1 nM
[2]
  affinity as pK value (RLBA): 8.68
α1BARXTAL
  apparent Tm of the ligand-bound receptor: ≈ 71 °C
[3]
  affinity as pK value (RLBA): 6.17
wild-type α1BAR; Ki, competition with 2 nM QAPB tracer, whole cells
  Ki: 1.02 nM
wild-type α1BAR; ratio of affinities α1BAR vs α2CAR
  higher affinity for wild-type α1BAR compared to α2CAR: ~330 fold
[4]
  pKa: 9
[5]
  Ki: 9.9 nM and 6.69 nM and 2.8 nM
